The values below come from publication PMC4633953, “FR171456 is a specific inhibitor of mammalian NSDHL and yeast Erg26p” (Nature Communications, 2015).

SMILES strings stand for the structures. Several values for one entry are separate records, joined by “and”; a condition that tells them apart may be missing. Equal values may be shown once.

As usually defined, the MIC is the least concentration at which growth counts as inhibited. The low end stands for a more susceptible organism, the high end for a less susceptible organism.

For data set [1], the system named is Cryptococcus neoformans NF3102. Kind of data set: Antifungal MIC. In kind it is cell-based.
The subject of data set [2] is erg26Δ haploid yeast expressing mutant ERG26 alleles. Kind of data set: Growth dose response of erg26Δ haploid yeast expressing mutant ERG26 alleles. Particulars: seven mutant ERG26 alleles, rich liquid media. The data set is classed as cell-based, S. cerevisiae. The source says:
To confirm that the observed ERG26 mutations are dominant and sufficient to confer FR171456 resistance, but retain the essential function of Erg26p, we assessed the growth of erg26Δ haploid yeast expressing wild-type ERG26 or one of seven mutant alleles inserted at another locus in rich liquid media. […] It was not possible to generate a haploid strain carrying a single copy of ERG26 encoding the Gly90Ser mutation after multiple attempts. Thus seven of the eight mutations within the coding region of ERG26 are both dominant for FR171456 resistance and retain sufficient enzymatic function to support life. This additional genetic data set confirms that Erg26p is the target of FR171456.
For EMS mutagenesis experiments, 1 × 10^8 cells were plated on one standard YPD agar plate containing 50 μM FR171456 in 2% DMSO v/v following a standard EMS mutagenesis protocol. After 2 days incubation at 30 °C 48 representative colonies were picked and retested in an overnight liquid assay for growth in YPD with or without 50 μM FR171456 in 2% DMSO v/v. Genomic DNA was prepared from 42 resistant clones (+ one wild type) and for each the entire ERG26 gene was sequenced following PCR amplification with high-fidelity polymerase. […]

Data set [3] deals with Candida tropicalis NF2903. Kind of data set: Antifungal MIC. The data set is classed as cell-based.
In data set [4] the test system is serum cholesterol. Particulars: cited from earlier work.

`C=C(CCC(C)C1CCC2C1(C)CC(O)C13CC14C(=O)CC(O)C(C)(C(=O)O)C4C(=O)CC23O)C(C)C` [FR171456, (1R,2aR,3R,5aR,5bS,7aR,8S,9S,11aS,12aR)-1,5b,9-trihydroxy-2a,8-dimethyl-3-((R)-6-methyl-5-methyleneheptan-2-yl)-7,11-dioxohexadecahydrocyclopenta[a]cyclopropa[e]-phenanthrene-8-carboxylic acid]: the MIC in data set [1] was 32 µg/mL and 72 µM; in data set [3], 72 µM and 32 µg/mL. Moreover, in data set [2], the “change of growth IC50 compared with the isogenic control” value is on record as “increase in the IC50”. Further, the “dose giving significant reduction in serum cholesterol” value in data set [4] (rabbits treated for 3 weeks ref 14) is 1 µg/kg. In data set [4] (rabbits, 3 weeks, doses up to 1 mg kg^−1 ref 14), the adverse effects entry is “no adverse effects reported”. Besides, the side effects result in data set [4] (rabbits, efficacious doses for 14 days ref 14) is “no reported side effects”.
